Measured values as given in BindingDB's records for patent US11053253 (Achillion Pharmaceuticals, 2021).

Target: Complement factor D (Homo sapiens, UniProt P00746)
Assay: Human Factor D Assay
Procedure: Human Factor D (purified from human serum, Complement Technology, Inc.) at 80 nM final concentration is incubated with test compound at various concentrations for 5 min at room temperature in 50 mM Tris, 1M NaCl, pH 7.5. A synthetic substrate Z-L-Lys-SBzl and DTNB (Ellman's reagent) are added to final concentrations of 100 µM each. Absorbance at 405 nm (A405) is recorded at 30 second intervals for 30 minutes using a microplate spectrophotometer. IC50 values are calculated by nonlinear regression of Complement Factor D reaction rates as a function of test compound concentration.

Chain of Complement factor D (P00746 whole entry): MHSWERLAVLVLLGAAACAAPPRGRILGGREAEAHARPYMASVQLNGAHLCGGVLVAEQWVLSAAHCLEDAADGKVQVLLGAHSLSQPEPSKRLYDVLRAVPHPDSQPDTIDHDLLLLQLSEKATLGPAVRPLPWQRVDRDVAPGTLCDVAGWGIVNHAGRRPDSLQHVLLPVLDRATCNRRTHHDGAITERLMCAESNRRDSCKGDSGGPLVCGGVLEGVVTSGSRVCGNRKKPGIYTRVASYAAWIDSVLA

Row | Compound | IC50 [nM]
1 | CC(=O)c1nn(CC(=O)N2[C@H]3C[C@]4(C[C@@H]24)Cn2ccc(n2)/C=C/COCc2ccc(Br)nc2NC3=O)c2ccc(-c3cnc(C)nc3)cc12 [US11053253, Cmp No. T-67] | < 1000
2 | CC(=O)c1nn(CC(=O)N2[C@H]3C[C@@]4(COCC=CCOCc5cc(Br)nc(c5)NC3=O)C[C@@H]24)c2cnc(-c3cnc(C)nc3)cc12 [US11053253, Cmp No. T-83] | < 1000
3 | CC(=O)c1nn(CC(=O)N2[C@H]3C[C@@]4(C=CCCCN(C)S(=O)(=O)Cc5ccc(Br)nc5NC3=O)C[C@@H]24)c2c(C)cc(-c3cnc(C)nc3)cc12 [US11053253, Cmp No. T-216] | < 1000
4 | CC(=O)c1nn(CC(=O)N2[C@H]3C[C@]4(C[C@@H]24)Cn2ccc(n2)/C=C/COCc2ccc(Br)nc2NC3=O)c2cnc(-c3cnc(C)nc3)cc12 [US11053253, Cmp No. T-68] | < 1000
5 | CC(=O)c1nn(CC(=O)N2[C@H]3C[C@@]4(C=CCCCN(C)S(=O)(=O)Cc5ccc(Br)nc5NC3=O)C[C@@H]24)c2ccc(-c3cnc(C)nc3)cc12 [US11053253, Cmp No. T-215] | < 1000
